Data taken from ChEMBL document CHEMBL1126102, “2-(N'-aralkylidenehydrazino)adenosines: potent and selective coronary vasodilators” (J Med Chem, 1992).

Assays:
[1] = target: Adenosine A2 receptor; experiment: Tested for adenosine A2 receptor agonistic activity by determining coronary vasodilation; type: functional, Cavia porcellus
[2] = target: T1, Adenosine receptor A1 (Cavia porcellus, UniProt P47745); experiment: Tested for adenosine A1 receptor agonistic activity by determining concentration needed to prolong the stimulus-QRS interval by 50% of the maximum response; type: functional
T1 sequence (P47745 whole entry): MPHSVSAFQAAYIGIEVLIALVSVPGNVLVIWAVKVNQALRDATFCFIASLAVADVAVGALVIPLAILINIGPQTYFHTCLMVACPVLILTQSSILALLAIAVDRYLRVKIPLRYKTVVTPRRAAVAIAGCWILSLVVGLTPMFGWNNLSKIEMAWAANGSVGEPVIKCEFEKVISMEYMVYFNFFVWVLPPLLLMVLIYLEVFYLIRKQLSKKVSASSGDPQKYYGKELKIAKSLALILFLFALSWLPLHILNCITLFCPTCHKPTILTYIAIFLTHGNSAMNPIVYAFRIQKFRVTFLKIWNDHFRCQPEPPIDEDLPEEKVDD

SMILES | -Log EC50 [1] | EC50 [2] [µM]
Nc1nc(N/N=C/c2cccc(F)c2)nc2c1ncn2C1O[C@H](CO)[C@@H](O)[C@H]1O (stereo not given in full) | 8.47 | 9.12
Cc1cccc(/C=N/Nc2nc(N)c3ncn(C4O[C@H](CO)[C@@H](O)[C@H]4O)c3n2)c1 (stereo not given in full) | 8.36 | 17
C/C(=N\Nc1nc(N)c2ncn(C3O[C@H](CO)[C@@H](O)[C@H]3O)c2n1)c1cccs1 (stereo not given in full) | 7.55 | 8.91
Nc1nc(N/N=C/Cc2ccccc2)nc2c1ncn2C1O[C@H](CO)[C@@H](O)[C@H]1O (stereo not given in full) | 8.04 | 83.2
Nc1nc(N/N=C/c2ccc(CCC(=O)O)cc2)nc2c1ncn2C1O[C@H](CO)[C@@H](O)[C@H]1O (stereo not given in full) | 8.18 | 30.9
Nc1nc(N/N=C/c2cccc(Cl)c2)nc2c1ncn2C1O[C@H](CO)[C@@H](O)[C@H]1O (stereo not given in full) | 8.34 | 49
Nc1nc(N/N=C/c2cc(Br)cs2)nc2c1ncn2C1O[C@H](CO)[C@@H](O)[C@H]1O (stereo not given in full) | 8.28 | 57.5
Nc1nc(N/N=C/c2ccncc2)nc2c1ncn2C1O[C@H](CO)[C@@H](O)[C@H]1O (stereo not given in full) | 7.96 | 26.3
CC(C)(C)OC(=O)CCc1ccc(CCNc2nc(N)c3ncn(C4O[C@H](CO)[C@@H](O)[C@H]4O)c3n2)cc1 (stereo not given in full) | 8.28 | 19.1
Nc1nc(N/N=C/c2ccccc2)nc2c1ncn2C1O[C@H](CO)[C@@H](O)[C@H]1O (stereo not given in full) | 8.64 | 83.2
CC(C)(C)OC(=O)CCc1ccc(/C=N/Nc2nc(N)c3ncn(C4O[C@H](CO)[C@@H](O)[C@H]4O)c3n2)cc1 (stereo not given in full) | 8.52 | 12
Nc1nc(N/N=C/CCc2ccccc2)nc2c1ncn2C1O[C@H](CO)[C@@H](O)[C@H]1O (stereo not given in full) |  | 66.1
COc1ccccc1/C=N/Nc1nc(N)c2ncn(C3O[C@H](CO)[C@@H](O)[C@H]3O)c2n1 (stereo not given in full) | 6.86 | 12.3
C/C(=N\Nc1nc(N)c2ncn(C3O[C@H](CO)[C@@H](O)[C@H]3O)c2n1)c1ccc(F)cc1 (stereo not given in full) | 8.49 | 4.17
Nc1nc(N/N=C/c2cccc3ccccc23)nc2c1ncn2C1O[C@H](CO)[C@@H](O)[C@H]1O (stereo not given in full) | 8.02 | 0.832
Nc1nc(N/N=C/c2cccs2)nc2c1ncn2C1O[C@H](CO)[C@@H](O)[C@H]1O (stereo not given in full) | 7.86 | 41.7
Nc1nc(N/N=C/c2cccnc2)nc2c1ncn2C1O[C@H](CO)[C@@H](O)[C@H]1O (stereo not given in full) | 7.83 | 32.4
Nc1nc(N/N=C/c2ccccc2F)nc2c1ncn2C1O[C@H](CO)[C@@H](O)[C@H]1O (stereo not given in full) | 8.43 | 41.7
COc1cccc(/C=N/Nc2nc(N)c3ncn(C4O[C@H](CO)[C@@H](O)[C@H]4O)c3n2)c1 (stereo not given in full) | 7.91 | 19.5
Cc1ccccc1/C=N/Nc1nc(N)c2ncn(C3O[C@H](CO)[C@@H](O)[C@H]3O)c2n1 (stereo not given in full) | 7.92 | 43.7
Nc1nc(N/N=C/c2ccccc2Cl)nc2c1ncn2C1O[C@H](CO)[C@@H](O)[C@H]1O (stereo not given in full) | 8.12 | 49
NNc1nc(N)c2ncn(C3O[C@H](CO)[C@@H](O)[C@H]3O)c2n1 (stereo not given in full) | 7.1 | 
Nc1nc(N/N=C/c2ccsc2)nc2c1ncn2C1O[C@H](CO)[C@@H](O)[C@H]1O (stereo not given in full) | 7.81 | 60.3
Cc1ccc(/C=N/Nc2nc(N)c3ncn(C4O[C@H](CO)[C@@H](O)[C@H]4O)c3n2)cc1 (stereo not given in full) |  | 39.8
C/C(=N\Nc1nc(N)c2ncn(C3O[C@H](CO)[C@@H](O)[C@H]3O)c2n1)c1ccccc1 (stereo not given in full) | 7.9 | 3.02
Nc1nc(N/N=C/c2ccccn2)nc2c1ncn2C1O[C@H](CO)[C@@H](O)[C@H]1O (stereo not given in full) | 8.24 | 41.7
Nc1nc(N/N=C/c2ccc3ccccc3c2)nc2c1ncn2C1O[C@H](CO)[C@@H](O)[C@H]1O (stereo not given in full) | 8.38 | 2.63
Nc1nc(N/N=C/c2ccc(F)cc2)nc2c1ncn2C1O[C@H](CO)[C@@H](O)[C@H]1O (stereo not given in full) | 8.61 | 12.6
Nc1nc(NCCc2ccc(CCC(=O)O)cc2)nc2c1ncn2C1O[C@H](CO)[C@@H](O)[C@H]1O (stereo not given in full) | 7.95 | 112
